# Entries after “also recorded” stand apart in the source; their conditions may differ.
# Columns and labels:
# Format in all cases: in vivo
# C57BL6 mice [1] = assay: Liver weight and gross liver observation, mouse NASH model (high fat feed + high sugar water)
# Text: (§1) In this example, a mouse nonalcoholic steatohepatitis (NASH) model was used to evaluate the effect of hepalatide (L47) on pathological changes and metabolism level of NASH, and to determine whether L47 can improve the pathological changes of NASH, so as to provide reference for pharmacodynamic evaluation of L47 before clinical treatment.
# (§2) 4.1.2 Model group (HFC-F/G): high fat feed+high sugar water, 9 mice in total, wherein 3 mice were sacrificed at week 8, and 6 mice were sacrificed at week 16.
# (§3) 4.1.3 Low dose group 1 (HFC-F/G+HL1): high fat feed+high sugar water+L47 20 mg/kg (10 mg/kg*2/d, i.e. once in the morning and once in the afternoon), 10 mice in total, wherein 3 mice were sacrificed at week 8, and 7 mice were sacrificed at week 16.
# (§4) 4.1.4 High dose group 1 (HFC-F/G+HH1): high fat feed+high sugar water+L47 60 mg/kg (30 mg/kg*2/d, i.e. once in the morning and once in the afternoon), 10 mice in total, wherein 3 mice were sacrificed at week 8, and 7 mice were sacrificed at week 16.
# (§5) 4.1.5 Low dose group 2 (HFC-F/G+HL2): high fat feed+high sugar water+L47 20 mg/kg (10 mg/kg*2/d, i.e. once in the morning and once in the afternoon, with pharmacologic intervention started 8 weeks after initiation of the experiment), 5 mice in total, which are sacrificed after 16 weeks.
# (§6) 4.1.6 High dose group 2 (HFC-F/G+HH2): high fat feed+high sugar water+L47 60 mg/kg (30 mg/kg*2/d, i.e. once in the morning and once in the afternoon, with pharmacologic intervention started 8 weeks after initiation of the experiment), 5 mice in total, which are sacrificed after 16 weeks.
# (§7) Route of administration: subcutaneous injection.
# (§8) At week 8 and week 16, liver was separated by dissection after anesthesia and blood collection, and pathological changes of liver tissues and accumulation of abdominal fat were grossly observed by the naked eye.
# C57BL6 mice [2] = assay: Quantitative CT of body fat deposition, mouse NASH model; settings: week 16; for subcutaneous fat (CT): vs model group
# Text: as §1
# Quantitative CT was used to locate and quantify subcutaneous, visceral and brown fat in mice at week 16.
# C57BL6 mice [3] = assay: Glucose tolerance, fasting insulin and insulin resistance index, mouse NASH model; settings: for blood glucose level in glucose tolerance test: treatment groups vs model group; for fasting serum insulin level / insulin resistance HOMA-RI level: vs model group
# Text: As used herein, homeostatic model assessment (HOMA) index may refer HOMA-IR (quantifying the level of insulin resistance) index. The value of HOMA-IR can be calculated by following the formula of: HOMA-IR=[(blood glucose expressed in mmol/L)×(serum insulin expressed in mU/L)]/22.5.
# as §1
# 5.2.3 Insulin ELISA Test Kit, Cat No.: EZRMI-13K, Millipore Company.
# At week 8 and week 16, fasting blood glucose and glucose tolerance (subcutaneous injection of glucose: 2.5 mg/g, preparation concentration: 250 mg/ml) were measured in mice, blood glucose levels were measured at 0, 30, 60, 90 and 120 min after the injection of glucose, and insulin resistance index was calculated according to the fasting insulin level.
# C57BL6 mice [4] = assay: Liver biochemistry test, mouse NASH model
# Text: as §1
# Hydroxyproline and free fatty acid (FFA) kits (Cat No.: A030-3 and A042-1, respectively) were provided by Nanjing Jiancheng Bioengineering Research Institute;
# Triglyceride (TG) and cholesterol (TC) (Cat No.: E1013-105 and E1015 respectively) were provided by Applygen Technologies Inc.
# At week 8 and week 16, liver was taken and levels of TG, TC, free fatty acid (FFA), hydroxyproline (HYP) were measured.
# C57BL6 mice [5] = assay: Body weight and general observation of abdominal fat, mouse NASH model
# Text: as §1
# Each experimental group was provided with sufficient feed and water daily with free diet, and water was changed twice a week for sugar water-added group, and the remaining amount of feed was weighed and added to 150 g each week for each group in addition to the normal control group, and body weight of mice was weighed each week for each group.
# as §8
# C57BL6 mice [6] = assay: Mouse NASH model, overall conclusions at week 8 and week 16
# Text: as §1
# 4.1.1 Normal control group (Control): common block feed+common water, 14 mice in total, wherein 6 mice were sacrificed at week 8, and 8 mice were sacrificed at week 16.
# as §2, §3, §4, §5, §6
# The concentration of L47 in low dose group was 5 mg/ml; the concentration of L47 in high dose group was 10 mg/ml.
# as §7
# [7] = treatment groups vs model group
# [8] = week 16, HL2 (L47 10 mg/kg*2/d s.c., started after 8 weeks)
# [9] = week 8, treatment groups (HL1, HH1) vs model group
# [10] = overall conclusion, week 8 and week 16
# [11] = overall conclusion, effect better as dose and administration duration increased
# [12] = overall conclusion, in a short period of time, dose-dependent
substance,measurement,setting,value
hepalatide [L47],"general observation of liver change (color, weight)","C57BL6 mice [1]; treatment groups vs model group, week 8 implied",improved
same,liver weight,"C57BL6 mice [1]; week 8, each group (HL1, HH1)",no significant difference
same,"general observation of liver change (color, weight)","C57BL6 mice [1]; week 16, low dose group 2 and high dose group 2 vs model group",liver colors tended to be normal
same,liver weight,"C57BL6 mice [1]; week 16, vs model group, HL2 (L47 10 mg/kg*2/d s.c., started after 8 weeks), p<0.05",decreased significantly
same,subcutaneous fat (quantitative body fat on CT scan),C57BL6 mice [2]; L47 treatment groups vs model group (conclusions),decreased significantly
same,brown fat (CT),C57BL6 mice [2]; [7],no significant difference
same,visceral fat (CT),C57BL6 mice [2]; [7],no significant difference; also recorded: no significant effect
same,subcutaneous fat (CT),C57BL6 mice [2]; HH1 (L47 30 mg/kg*2/d s.c. from start),decreased
same,subcutaneous fat (CT),"C57BL6 mice [2]; HH2 (L47 30 mg/kg*2/d s.c., started after 8 weeks)",decreased
same,subcutaneous fat (CT),"C57BL6 mice [2]; HL2 (L47 10 mg/kg*2/d s.c., started after 8 weeks)",decreased
same,blood glucose level in glucose tolerance test,"C57BL6 mice [3]; week 8, 90 min after glucose, p<0.05, p<0.01",significantly decreased
same,blood glucose level in glucose tolerance test,"C57BL6 mice [3]; week 8, 120 min after glucose, p<0.01",significantly decreased
same,blood glucose level in glucose tolerance test,"C57BL6 mice [3]; week 16, 90 min after glucose",decreasing trend
same,blood glucose level in glucose tolerance test,"C57BL6 mice [3]; week 16, 120 min after glucose",decreasing trend
same,blood glucose,"C57BL6 mice [3]; week 16, treatment groups vs model group (conclusions)",decreased
same,fasting serum insulin level,"C57BL6 mice [3]; week 16, HH1 (L47 30 mg/kg*2/d s.c. from start), p<0.001",significantly decreases
same,insulin resistance HOMA-RI level,"C57BL6 mice [3]; week 16, HH1 (L47 30 mg/kg*2/d s.c. from start), p<0.05",significantly decreases
same,insulin resistance HOMA-RI level,"C57BL6 mice [3]; week 16, HH2 (L47 30 mg/kg*2/d s.c., started after 8 weeks)",decreasing trend
same,fasting serum insulin level,"C57BL6 mice [3]; week 16, HH2 (L47 30 mg/kg*2/d s.c., started after 8 weeks), p<0.001",significantly decreases
same,fasting serum insulin level,"C57BL6 mice [3]; week 16, HL1 (L47 10 mg/kg*2/d s.c. from start), p<0.001",significantly decreases
same,insulin resistance HOMA-RI level,"C57BL6 mice [3]; week 16, HL1 (L47 10 mg/kg*2/d s.c. from start), p<0.05",significantly decreases
same,fasting serum insulin level,C57BL6 mice [3]; [8],decreasing trend
same,insulin resistance HOMA-RI level,C57BL6 mice [3]; [8],no significant difference
same,liver FFA level,"C57BL6 mice [4]; week 8, high dose group vs model group, p<0.05",statistical significance
same,liver FFA level,C57BL6 mice [4]; [9],decreasing trends; also recorded: decreased significantly
same,liver hydroxyproline level,C57BL6 mice [4]; [9],decreasing trends; also recorded: reduced
same,liver TC level,"C57BL6 mice [4]; week 8, treatment groups (HL1, HH1) vs model group, p<0.001, p≤0.001",significantly decreased
same,liver TG level,"C57BL6 mice [4]; week 8, treatment groups (HL1, HH1) vs model group, p≤0.001, p<0.001",significantly decreased; also recorded: decreased significantly
same,liver hydroxyproline level,"C57BL6 mice [4]; week 16, HH1 (L47 30 mg/kg*2/d s.c. from start)",higher
same,liver hydroxyproline level,"C57BL6 mice [4]; week 16, HL1 (L47 10 mg/kg*2/d s.c. from start)",higher
same,liver TC level,"C57BL6 mice [4]; week 16, treatment groups (HL1, HH1, HL2, HH2) vs model group, p<0.001 each",significantly decreased
same,liver FFA level,"C57BL6 mice [4]; week 16, treatment groups vs model group",decreased; also recorded: decreasing trends
same,liver TG level,"C57BL6 mice [4]; week 16, vs model group, HH1 (L47 30 mg/kg*2/d s.c. from start)",decreasing trends
same,liver hydroxyproline level,"C57BL6 mice [4]; week 16, vs model group, HH2 (L47 30 mg/kg*2/d s.c., started after 8 weeks), more significant, p<0.05",decreased
same,liver TG level,"C57BL6 mice [4]; week 16, vs model group, HH2 (L47 30 mg/kg*2/d s.c., started after 8 weeks), p<0.05",significantly decreased
same,liver TG level,"C57BL6 mice [4]; week 16, vs model group, HL1 (L47 10 mg/kg*2/d s.c. from start)",decreasing trends
same,liver hydroxyproline level,"C57BL6 mice [4]; week 16, vs model group, HL2 (L47 10 mg/kg*2/d s.c., started after 8 weeks)",decreased
same,liver TG level,"C57BL6 mice [4]; week 16, vs model group, HL2 (L47 10 mg/kg*2/d s.c., started after 8 weeks), p<0.01",significantly decreased
same,body weight,"C57BL6 mice [5]; week 8, L47 treatment groups vs model group",significantly decreased
same,abdominal fat deposition (general observation),"C57BL6 mice [5]; week 8, treatment groups",significant effect
same,abdominal fat deposition (general observation),"C57BL6 mice [5]; week 16, among each group",no significant difference
same,body weight,"C57BL6 mice [5]; week 16, low dose group 2",decrease
same,body weight,"C57BL6 mice [5]; week 16, treatment groups except low dose group 2, vs model group",no significant difference
same,"levels of ALB, HDL and LDL",C57BL6 mice [6]; [10],reduce
same,levels of VLDL and ALP,C57BL6 mice [6]; [10],no effect
same,blood glucose and insulin level,C57BL6 mice [6]; [11],effectively reduce
same,insulin resistance,C57BL6 mice [6]; [11],improve
same,apoptosis (liver),C57BL6 mice [6]; [12],improve
same,fibrosis degree of liver,C57BL6 mice [6]; [12],effectively reduce
same,levels of ALT and AST,C57BL6 mice [6]; [12],effectively reduce
same,"subcutaneous fat, liver fat and serum fat deposition","C57BL6 mice [6]; overall conclusion, in a short period of time, dose-dependent, improvement reduced as treatment duration extended",effectively reduce
same,"liver fat accumulation, liver cell damage, insulin resistance and liver fibrosis","C57BL6 mice [6]; short-term (8 weeks) co-administration or delayed administration, to various degrees",improve

# Source: patent publication US20200338158A1, “Therapeutic Drug for Non-Alcoholic Fatty Liver Disease” (Shanghai Hep Pharmaceutical Co., Ltd., priority 2017, published 2020)
